Reference: patent US4057684A, “Alkyl amino-glucopyranoside derivative and process for producing the same” (priority 1975, dated 1977)
Several values for one entry are separate records, joined by “and”; a condition that tells them apart may be missing. Equal entries are not always repeated. Entries after “also recorded” stand apart in the source; their conditions may differ. Where two headings read alike, the source gives them in different places.

What was measured:
[1] = tested on: Nakahara-Fukuoka sarcoma (NFS); assay: antitumor effect against Nakahara-Fukuoka sarcoma (NFS) implanted in mice; assay type: in vivo, mouse (ICR)
Text: (§1) Results of pharmacological studies for amino-glucopyranoside [I] according to the invention are described below. The test compounds which were used included methyl N-carbamyl-N'-(2-chloroethyl)-N'-nitroso-2-amino-2-deoxy-α-D-glucopyranoside and methyl N-carbamyl-N'-(2-chloroethyl)-N'-nitroso-6-amino-6-deoxy-α-D-glucopyranoside (hereinafter abbreviated to 2MCαG and 6MCαG, respectively). The control compounds which were employed were 1-(2-chloroethyl)-3-cyclohexyl-1-nitrosoourea (hereinafter abbreviated to CCNU), which had been widely applied as a control compound in such a pharmacological test of the streptozotocin derivatives, and GCNU referred to previously. The tumor systems which were used were leukemia L-1210, Nakahara-Fukuoka sarcoma, adenocarcinoma-755, ascites sarcoma 180 and Ehrlich ascites carcinoma (hereinafter abbreviated to L-1210, NFS, Ca-755, S-180A and EAC, respectively), and the antitumor activities were determined by a procedure of the National Cancer Center, Tokyo (A. Hoshi et al.: Farumashia 9, 464(1973)). The test animals which were used were ICR and BDF1 mice.
(§2) ^a Treatment was initiated 24 hr after implantation of tumor (day 1):
(§3) D1~5 = qd, day 1~5; D1 = day 1 only.
(§4) ^b T/C is expressed as the tumor weight ratio in solid tumors or tota
(§5) packed cell volume ratio in ascites tumors of treated/control.

[2] = tested on: adenocarcinoma-755 (Ca-755); assay: antitumor effect against adenocarcinoma-755 (Ca-755) implanted in mice; assay type: in vivo, mouse (BDF1)
Text: as §1, §2, §3, §4, §5

[3] = acute toxicity (LD50) in mice; assay type: in vivo, mouse (ICR); conditions: mouse, in vivo, ICR mice
[4] = tested on: Ehrlich ascites carcinoma (EAC); assay: antitumor effect against Ehrlich ascites carcinoma (EAC) implanted in mice; assay type: in vivo, mouse (ICR)
Text: as §1, §2, §3, §4, §5

[5] = blood sugar level / diabetogenic activity; assay type: in vivo, rat (male Wister)
[6] = peripheral white blood cell counts (bone marrow toxicity) and survival in normal male ICR mice; assay type: in vivo, mouse (ICR)
Procedure: Such peripheral white blood cell counts were performed as follows: Normal male ICR mice were used in groups of tens and the test compounds for treatment were made into their respective solutions. 2MCαG and 6MCαG were dissolved in physiological saline solutions, while CCNU and GCNU were suspended in 0.5% CMC aqueous solution and 50% PEG aqueous solution, respectively. A single administration at volume of 1 ml per 100 g body weight of animal (0.1 ml/10 g) was given intraperitoneally, and the peripheral white blood cell counts were performed 3, 8 and 15 days after administration of the test compounds.

[7] = tested on: leukemia L-1210; assay: increase in life span and survival of leukemia L-1210 implanted mice; assay type: in vivo, mouse (BDF1)
Text: as §1, §2, §3
^d % increase in life span (mean survival time) over controls.
^e 60 days survivors/total in treated group.

[8] = tested on: bacteria; assay: antibacterial activity, broth dilution method
[9] = tested on: solid as well as ascites tumor systems; assay: antitumor activity in the tumor systems (overall); assay type: in vivo, mouse; conditions: mouse, in vivo
Text: as §1

[10] = tested on: ascites sarcoma 180 (S-180A); assay: antitumor effect against ascites sarcoma 180 (S-180A) implanted in mice; assay type: in vivo, mouse (ICR)
Text: as §1, §2, §3, §4, §5

[11] = cited from earlier work
[12] = cited from earlier work; remark: listed apart in the source
[13] = tested on: tumor; conditions: in vivo; cited from earlier work
[14] = 3.2 mg/kg/day ip D1~5, ICR mice
[15] = 6.3 mg/kg/day ip D1~5, ICR mice
[16] = 12.5 mg/kg/day ip D1~5, ICR mice
[17] = 15.0 mg/kg/day ip D1~5, ICR mice
[18] = 20.0 mg/kg/day ip D1~5, ICR mice
[19] = 3.2 mg/kg/day ip D1~5, BDF1 mice
[20] = 6.3 mg/kg/day ip D1~5, BDF1 mice
[21] = 15.0 mg/kg/day ip D1~5, BDF1 mice
[22] = 3.2 mg/kg/day ip, 5 successive days
[23] = 3.2 mg/kg/day ip D1~5, listed as 2MCaαG

CO[C@H]1O[C@H](CO)[C@@H](O)[C@H](O)[C@H]1NC(=O)N(CCCl)N=O [Example 2MCαG, methyl N-carbamyl-N'-(2-chloroethyl)-N'-nitroso-2-amino-2-deoxy-α-D-glucopyranoside]
Activity [1, 14]: - (100~71% = -)
T/C [1, 14]: 86.1%
Activity [1, 15]: + (70~51% = +)
T/C [1, 15]: 55.2%
T/C [1, 16]: 44.3%
Activity [1, 17]: ++ (50~21% = ++)
T/C [1, 17]: 29.2%
Activity [1, 18]: Toxic
died/used [1, 18]: 6/6
antitumor effect compared with CCNU ([1]; ip, 5 successive days): more effective than CCNU
Activity [2, 19]: ++ (50~21% = ++)
T/C [2, 19]: 22.4%
Activity [2, 20]: +++ (20~0% = +++)
T/C [2, 20]: 9.6%
T/C ([2]; 12.5 mg/kg/day ip D1~5, BDF1 mice): 3.3%
Activity [2, 21]: Toxic
T/C [2, 21]: 0.3%
died/used [2, 21]: 6/6
antitumor effect compared with CCNU ([2]; ip, 5 successive days): more effective than CCNU
LD50 ([3]; 5 doses, qd): 16 mg/kg
LD50 ([3]; single dose): 48 mg/kg
Activity [4, 14]: +++ (10~0% 10~0% = +++)
T/C [4, 14]: 0%
accumulation of ascites tumor cells [4, 22]: no accumulation of ascites tumor cells was observable
T/C [4, 16]: 0%
blood sugar level ([5]; one-month administration, qd, day 1-30, male Wister rat, glucose oxidase method): neither elevation nor depression tendencies
diabetogenic activity ([5]; rat, in vivo): free from diabetogenic
Death rate (death/used) ([6]; 10 mg/kg ip single): 0/10
Average count of WBC ([6]; 10 mg/kg ip single, day 3): 74.0±4.6 x 10^2 WBC/mm^3
Average count of WBC ([6]; 10 mg/kg ip single, day 8): 105.6±4.5 x 10^2 WBC/mm^3
Average count of WBC ([6]; 10 mg/kg ip single, day 15): 131.8±5.4 x 10^2 WBC/mm^3
Death rate (death/used) ([6]; 20 mg/kg ip single): 2/10
Average count of WBC ([6]; 20 mg/kg ip single, day 3): 46.3±9.5 x 10^2 WBC/mm^3
Average count of WBC ([6]; 20 mg/kg ip single, day 8): 101.0±16.5 x 10^2 WBC/mm^3
Average count of WBC ([6]; 20 mg/kg ip single, day 15): 129.4±20.1 x 10^2 WBC/mm^3
Death rate (death/used) ([6]; 40 mg/kg ip single): 10/10
Average count of WBC ([6]; 40 mg/kg ip single, day 3): 30.8±2.8 x 10^2 WBC/mm^3
Death rate (death/used) ([6]; 60 mg/kg ip single): 10/10
Average count of WBC ([6]; 60 mg/kg ip single, day 3): 35.4±2.9 x 10^2 WBC/mm^3
Death rate (death/used) ([6]; 80 mg/kg ip single): 10/10
Average count of WBC ([6]; 80 mg/kg ip single, day 3): 32.0±3.8 x 10^2 WBC/mm^3
incidence of leukopenia ([6]; LD10 doses): comparatively mild with rapid return to pretreatment levels
bone marrow toxicity ([6]; mouse, in vivo): improved bone marrow toxicity
bone marrow toxicity compared with CCNU ([6]; mouse, in vivo): less toxic
bone marrow toxicity compared with GCNU ([6]; mouse, in vivo): equivalent values as GCNU
ILS ([7]; 1.0 mg/kg/day ip D1~5): 48%
Survivors (60 days survivors/total) ([7]; 1.0 mg/kg/day ip D1~5): 0/6
ILS ([7]; 2.0 mg/kg/day ip D1~5): > 249%
Survivors (60 days survivors/total) ([7]; 2.0 mg/kg/day ip D1~5): 1/6
ILS ([7]; 2.0 mg/kg/day po D1~5): > 143%
Survivors (60 days survivors/total) ([7]; 2.0 mg/kg/day po D1~5): 1/6
ILS ([7]; 3.2 mg/kg/day ip D1~5): 394%
Survivors (60 days survivors/total) ([7]; 3.2 mg/kg/day ip D1~5): 3 out of 6
ILS [7, 23]: > 394%
Survivors (60 days survivors/total) [7, 23]: 3/6
ILS ([7]; 3.2 mg/kg/day po D1~5): > 141%
Survivors (60 days survivors/total) ([7]; 3.2 mg/kg/day po D1~5): 1/6
ILS ([7]; 4.0 mg/kg/day ip D1~5): > 349%
Survivors (60 days survivors/total) ([7]; 4.0 mg/kg/day ip D1~5): 2/6
ILS ([7]; 6.3 mg/kg ip D1 only): 128%
Survivors (60 days survivors/total) ([7]; 6.3 mg/kg ip D1 only): 0/6
ILS ([7]; 6.3 mg/kg/day ip D1~5): > 198%
Survivors (60 days survivors/total) ([7]; 6.3 mg/kg/day ip D1~5): 1/6
ILS ([7]; 6.3 mg/kg/day po D1~5): 343% and > 343%
Survivors (60 days survivors/total) ([7]; 6.3 mg/kg/day po D1~5): 2 out of 6 and 2/6
ILS ([7]; 8.0 mg/kg ip D1 only): > 432%
Survivors (60 days survivors/total) ([7]; 8.0 mg/kg ip D1 only): 3/6
ILS ([7]; 10.0 mg/kg ip D1 only): > 717%
Survivors (60 days survivors/total) ([7]; 10.0 mg/kg ip D1 only): 6/6
ILS ([7]; 10.0 mg/kg/day ip D1~5): > 190%
Survivors (60 days survivors/total) ([7]; 10.0 mg/kg/day ip D1~5): 1/6
ILS ([7]; 12.5 mg/kg/day ip D1~5): > 160%
Survivors (60 days survivors/total) ([7]; 12.5 mg/kg/day ip D1~5): 1/6
ILS ([7]; 12.5 mg/kg/day po D1~5): 211%
Survivors (60 days survivors/total) ([7]; 12.5 mg/kg/day po D1~5): 0/6
ILS ([7]; 20.0 mg/kg ip D1 only): > 717%
Survivors (60 days survivors/total) ([7]; 20.0 mg/kg ip D1 only): 6/6
ILS ([7]; 20.0 mg/kg/day ip D1~5): 58%
Survivors (60 days survivors/total) ([7]; 20.0 mg/kg/day ip D1~5): 0/6
ILS ([7]; 25.0 mg/kg ip D1 only): > 539%
Survivors (60 days survivors/total) ([7]; 25.0 mg/kg ip D1 only): > 4/6
single dose compared with five dose schedule ([7]; ip): might be more effective than a five dose schedule
activity against L-1210 compared with CCNU and GCNU ([7]; mouse, in vivo): more active against L-1210
ILS ([7]; single 10-20 mg/kg ip): 717%
animals survived ([7]; single 10-20 mg/kg ip): all 6 animals survived
antibacterial activity [8]: without any antibacterial activities; also recorded: free from diabetogenic and antibacterial activities
antitumor activity [9]: activity against solid as well as ascites tumor systems
Activity [10, 14]: +++ (10~0% 10~0% = +++)
T/C [10, 14]: 0%
accumulation of ascites tumor cells [10, 22]: no accumulation of ascites tumor cells was observable
T/C [10, 16]: 0%

CC(=O)OC[C@H]1OC(OC(C)=O)[C@H](NC(=O)N(CCCl)N=O)[C@@H](OC(C)=O)[C@@H]1OC(C)=O (stereo partly drawn) [GCNU, 3-(tetraacetylglucopyranos-2-yl)-1-(2-chloroethyl)-1-nitrosourea, reference compound]
bone marrow toxicity ([11]; in vivo): reduced bone marrow toxicity
leukopenia ([11]; single ip, 15 mg/kg): without causing leukopenia
Death rate (death/used) ([6]; 10 mg/kg ip single): 0/10
Average count of WBC ([6]; 10 mg/kg ip single, day 3): 83.1±4.5 x 10^2 WBC/mm^3
Average count of WBC ([6]; 10 mg/kg ip single, day 8): 140.3±15.7 x 10^2 WBC/mm^3
Average count of WBC ([6]; 10 mg/kg ip single, day 15): 116.0±10.0 x 10^2 WBC/mm^3
Death rate (death/used) ([6]; 20 mg/kg ip single): 6/10
Average count of WBC ([6]; 20 mg/kg ip single, day 3): 60.4±3.6 x 10^2 WBC/mm^3
Average count of WBC ([6]; 20 mg/kg ip single, day 8): 131.4±17.4 x 10^2 WBC/mm^3
Average count of WBC ([6]; 20 mg/kg ip single, day 15): 106.0±9.0 x 10^2 WBC/mm^3
Death rate (death/used) ([6]; 40 mg/kg ip single): 10/10
Average count of WBC ([6]; 40 mg/kg ip single, day 3): 33.2±3.3 x 10^2 WBC/mm^3
Death rate (death/used) ([6]; 60 mg/kg ip single): 10/10
Average count of WBC ([6]; 60 mg/kg ip single, day 3): 26.5±3.5 x 10^2 WBC/mm^3
diabetogenic activity ([12]; test animals): nondiabetogenic activity

CN(N=O)C(=O)N[C@H]1C(O)O[C@H](CO)[C@@H](O)[C@@H]1O (stereo partly drawn) [streptozotocin, N-carbamyl-N'-methyl-N'-nitroso-2-amino-2-deoxy-D-glucopyranose]
antitumor activity [13]: exhibits an antitumor activity
diabetogenic activity ([12]; in vivo): diabetogenic
